In PubChem BioAssay AID743490 (The Scripps Research Institute Molecular Screening Center, 2014):
Activity calls are given as the source filed them. How the calls were made is not given here.

Each compound was assayed against Trace amine-associated receptor 1 (Homo sapiens) (UniProt Q96RJ0) (assay: loss of TAAR1 response after agonism – cell-based, fluorescence, human, MedChem round 1, counter-screen for TAAR1 agonist project, SAR follow-up (AID 743490)). Conditions: hTAAR1 cells, desensitization of agonist response.
Chain of Trace amine-associated receptor 1 (Homo sapiens) (Q96RJ0 whole entry, looked up): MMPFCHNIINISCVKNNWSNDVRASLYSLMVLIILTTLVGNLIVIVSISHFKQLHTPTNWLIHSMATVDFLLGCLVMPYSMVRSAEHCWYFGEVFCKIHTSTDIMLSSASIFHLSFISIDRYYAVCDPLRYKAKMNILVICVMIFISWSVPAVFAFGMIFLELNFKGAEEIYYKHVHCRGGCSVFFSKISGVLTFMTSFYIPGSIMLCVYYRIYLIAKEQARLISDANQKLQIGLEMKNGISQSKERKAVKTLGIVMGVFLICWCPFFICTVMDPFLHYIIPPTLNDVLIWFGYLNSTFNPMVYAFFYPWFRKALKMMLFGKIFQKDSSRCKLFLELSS
With `NC(=O)CCN1C[C@H](c2ccccc2)[C@@H]2[C@H]1C1CCN2CC1` the IC50 was > 29.9 µM (inactive). `O=C(CCN1CCC(O)(c2ccccc2)C1)c1ccc2c(c1)OCCO2` (stereo unspecified) was tested, and the IC50 was > 29.9 µM (inactive). For `Cc1ccc(C(=O)CCN2CCC(c3ccccc3)C2)cc1` (stereo unspecified), the IC50 was > 29.9 µM (inactive). For `O=C(CCN1CCC(O)(c2ccc(F)cc2)C1)c1ccc2c(c1)OCCO2` (stereo unspecified), the IC50 was > 29.9 µM (inactive). With `CC(CN1CCCC1Cc1ccccc1)C(=O)c1ccc2c(c1)OCCO2` (stereo unspecified) the IC50 was > 29.9 µM (inactive). For `O=C(CCN1C[C@@H](C(=O)O)[C@H](c2ccccc2)C1)NC1CCCC1`, the IC50 was > 29.9 µM (inactive). In the case of `O=C(CCN1C[C@@H](C(=O)O)[C@H](c2cccc(F)c2)C1)NC1CC1`, the IC50 is reported as > 29.9 µM (inactive). In the case of `CC(CN1CCC(c2ccccc2)C1)C(=O)c1ccc2c(c1)OCCO2` (stereo unspecified), the IC50 is reported as > 29.9 µM (inactive). In the case of `O=C(CCN1C[C@@H](C(=O)O)[C@H](c2ccccc2)C1)NCc1cccs1`, the IC50 is reported as > 29.9 µM (inactive). `CC1CN(CCC(=O)c2ccc3c(c2)OCCO3)CC1c1ccccc1` (stereo unspecified) was tested, and the IC50 was 4.4 µM. In the case of `O=C(CCN1CCC(c2ccccc2)C1)c1ccccc1` (stereo unspecified), the IC50 is reported as “inactive”.
